Assay results from patent publication US9511016B2, “Topical composition for treating pain” (EpicentRx, Inc., priority 2007, dated 2016).
Where “and” joins values, the source holds several entries; their conditions need not be identical. Equal entries are not always repeated.

Columns and labels:
Human Patient with Pain = experiment: Topical treatment of human patients with pain: pain level (x/10), mobility, duration; assay type: in vivo; conditions: for Observation: mobility: Table 5 patient 10, neck pain 5/10; for Mobility / stiffness after application: patient and treated site of the example or table row cited
Human Patient = experiment: Systemic effects in human patients after application: breathing, peak expiratory flow, appetite, alertness; assay type: in vivo; conditions: patient of the example or table row cited
Description: Pluronic gel 20% with lecithin soya/isopropyl myristate was applied to stomach and abdominal wall.

[1] = Table 7: sacroiliac strain, bilateral sacroilitis
[2] = Table 7: back, leg, joint, hip, toe, knee pain
[3] = Ex.27, clonidine then nitropaste
[4] = Table 7: compression fracture of vertebra
[5] = Table 7: neck pain and stiffness
[6] = Table 7: patellofemoral syndrome
[7] = Table 7: sacroiliac strain, bilateral sacroilitis, listed as Albuterol inhaler

## Tween 80
Human Patient with Pain
  Observation: mobility: More mobility
Human Patient
  Systemic effects noted (alertness, appetite, breathing, congestion, sweating, secretions): improvement in breathing

## Tween 20
Human Patient with Pain
  Observation: mobility: Increased mobility

## CC(C)NCC(O)COc1ccc(CC(N)=O)cc1 (centres unmarked) [Atenolol]
Human Patient with Pain; Ex.10 thoracalgia, left side, initial 5/10, in series
  Pain level: pain completely disappeared
Human Patient with Pain; Ex.10 thoracalgia, right side, initial 5/10, in series
  Pain level: 2/10
Human Patient with Pain; Ex.4 hammer toes, halux valgus and rigiditus, initial 7/10, in series
  Pain level: no effect
Human Patient with Pain; Ex.5 hip, trochanteric bursitis, initial 8/10, in series
  Pain level: 6/10
Human Patient with Pain; Ex.5 knee osteoarthritis, initial 8/10
  Pain level: 5/10
Human Patient with Pain; Ex.8 hip, trochanteric bursitis, initial 8/10, in series
  Pain level: no change
Human Patient with Pain; Table 7: osteoarthritis
  % Change in Pain level: 37.5%
  EFFECT ON PAIN LEVEL/% change: From 8/10 to 5/10
Human Patient with Pain; [1]
  % Change in Pain level: 0%
  EFFECT ON PAIN LEVEL/% change: No change
Human Patient with Pain; Table 7: trochanteric bursitis
  % Change in Pain level: 25%
  EFFECT ON PAIN LEVEL/% change: From 8/10 to 6/10

## OCC(O)CO [GP, Glycerin]
Human Patient with Pain; Table 4, components marked +, complaint and initial level in the same row, plus anhydrous lanolin
  Observation (pain): Pain disappeared
Human Patient with Pain; Table 5
  Observation (pain): 10 No effect on knee
Human Patient with Pain; Table 5, listed as Glycerin pure
  Observation (pain): 1/10
Human Patient with Pain; [2]
  % Change in Pain level: 0%
  EFFECT ON PAIN LEVEL/% change: No Change, then from 8/10
Human Patient with Pain; Table 7: osteoarthritis
  % Change in Pain level: 16.7%
Human Patient with Pain; Table 7: tarsal tunnel, carpal tunnel syndrome, wrist pain
  % Change in Pain level: 0%

## Triton x100
Human Patient with Pain
  Observation: mobility: Slight increase in mobility

## COc1cc(CNC(=O)CCCC/C=C/C(C)C)ccc1O [capsaicin]
Human Patient with Pain; across patients
  Overall analgesic effect (general statement): did not have much of an effect except in a few patients

## CCCCCCCCCCCCOS(=O)(=O)[O-].[Na+] [SDS 20%, Sodium dodecyl sulfate]
Human Patient; listed as SDS, sulfate
  Systemic effects noted (alertness, appetite, breathing, congestion, sweating, secretions): improvement in breathing

## Clc1cccc(Cl)c1N=C1NCCN1 [Clonidine]
Human Patient with Pain; Ex.11 right arm neuroma with phantom limb, initial 4/10, in series
  Pain level: pain completely disappeared
Human Patient with Pain; Ex.17 left rotator cuff impingement and bursitis, initial printed 5110
  Pain level: Pain disappeared
Human Patient with Pain; Ex.20 ischial gluteal bursitis, initial 9/10, clonidine then nitropaste
  Pain level: 5/10
Human Patient with Pain; Ex.20 right knee osteoarthritis, from 9/10, clonidine then nitropaste
  Pain level: 8/10
Human Patient with Pain; Ex.20 right wrist carpal tunnel, initial 9/10, nitropaste then clonidine paste
  Pain level: 3/10
Human Patient with Pain; Ex.20 trochanteric bursitis, initial 9/10, clonidine then nitropaste
  Pain level: 5/10
Human Patient with Pain; Ex.21 bilateral sacroiliac strain, initial 9/10, in series
  Pain level: 5/10
Human Patient with Pain; Ex.22 bilateral rotator cuff tear, initial printed 8.5410
  Pain level: no effect
Human Patient with Pain; Ex.23 thoracalgia, initial 8/10
  Pain level: no effect
Human Patient with Pain; Ex.24 left patellofemoral syndrome, initial 7/10, in series
  Pain level: 3/10
Human Patient with Pain; Ex.25 left trochanteric bursitis, initial 7/10
  Pain level: disappeared
Human Patient with Pain; Ex.25 right thumb osteoarthritis, initial 2/10, in series
  Pain level: stayed the same
Human Patient with Pain; Ex.26 L3 vertebral compression fracture, initial 6/10, in series
  Pain level: 4/10
Human Patient with Pain; Ex.27 neck stiffness and pain, radiculopathy, initial about 6/10
  Pain level: pain disappeared
Human Patient with Pain; [3]
  Head rotation to left: 70 degrees
  Head rotation to right: 75 degrees
Human Patient with Pain; Ex.28 left knee, initial 6/10, nitrobid then clonidine
  Pain level: pain also disappeared
Human Patient with Pain; Ex.28 right knee osteoarthritis/patellofemoral syndrome, initial 6/10, clonidine then nitrobid
  Pain level: 3/10
Human Patient with Pain; Ex.30 diabetic lower extremity neuropathy, initial 7/10, in series
  Pain level: 5/10
Human Patient with Pain; Table 1 part II: after clonidine paste (first step), listed as CD
  Pain Level, CD: 3/10 and 7/10 and 6/10
Human Patient with Pain; [4]
  % Change in Pain level: 33%
  EFFECT ON PAIN LEVEL/% change: From 6/10 to 4/10, No
Human Patient with Pain; Table 7: migraine and tension headache
  % Change in Pain level, total over successive treatments (marked *): *100%
Human Patient with Pain; Table 7: migraine, tension headache, cluster headache, headache
  EFFECT ON PAIN LEVEL/% change: 0/10
Human Patient with Pain; [5]
  % Change in Pain level: 100%
  EFFECT ON PAIN LEVEL/% change: From 6/10 to 0/10
Human Patient with Pain; Table 7: osteoarthritis
  % Change in Pain level, total over successive treatments (marked *): *100%;
  EFFECT ON PAIN LEVEL/% change: No change and From 6/10 to 3/10 and 6/10 to 0/10
Human Patient with Pain; [6]
  % Change in Pain level: 40%
  % Change in Pain level, total over successive treatments (marked *): 57%
  EFFECT ON PAIN LEVEL/% change: From 5/10 to 3/10
Human Patient with Pain; Table 7: rotator cuff tendinopathy, rotator cuff tear, shoulder pain, listed as Clonidine paste
  EFFECT ON PAIN LEVEL/% change: From 3/10 to 0/10
Human Patient with Pain; Table 7: rotator cuff tendinopathy, tear, shoulder pain, listed as Clonidine paste
  % Change in Pain level: 100%
Human Patient with Pain; Table 7: trochanteric bursitis
  EFFECT ON PAIN LEVEL/% change: From 7/10 to 0/10
Human Patient with Pain
  Mobility / stiffness after application: improved flexibility
Human Patient with Pain; listed as Clonidine paste
  Mobility / stiffness after application: improved mobility and range of motion
Human Patient with Pain; patient of the example cited
  Duration of pain relief: 6 h
  Persistence of pain relief at follow-up: A day later patient reported that their knee pain was still reduced
  Time to decrease of pain: 5 min
Human Patient with Pain; patient of the example cited, listed as clonidine
  Time to decrease of pain: ≤ 10 min

## CC(C)(C)NCC(O)c1ccc(O)c(CO)c1 (centres unmarked) [albuterol inhaler, albuterol]
Human Patient with Pain; Ex.34 V(a) left heel (no gel), initial 8/10, inhalers in series
  Pain level: 6/10
Human Patient with Pain; Ex.34 V(a) left heel, albuterol inhaler given again (from 5/10)
  Pain level: 3/10
Human Patient with Pain; Ex.34 V(a) right heel (PLO gel applied here), initial 8/10, then inhalers in series
  Pain level: 4/10
Human Patient with Pain; Ex.34 V(a) right heel, albuterol inhaler given again (from 3/10)
  Pain level: 2/10
Human Patient with Pain; Ex.34 V(c) lower back pain over coccyx, initial 8/10, in series
  Pain level: no change in their back pain
Human Patient with Pain; Ex.34 V(c) neck pain and stiffness, initial 5/10, in series
  Pain level: 2/10
Human Patient with Pain; Ex.34 V(e) sacroiliac strain, initial 8.5/10, in series
  Pain level: 4/10
Human Patient with Pain; Ex.34 V(f) midback pain, initial 7/10
  Pain level: without any change
Human Patient with Pain; Ex.34 V(h) possible lower lumbar compression fracture, initial 5/10, in series
  Pain level: 6/10
Human Patient with Pain; [5]
  EFFECT ON PAIN LEVEL/% change: 2/10
Human Patient with Pain; [1]
  % Change in Pain level, total over successive treatments (marked *): 53% to
Human Patient with Pain; [7]
  % Change in Pain level: 20%
  EFFECT ON PAIN LEVEL/% change: From 5/10 to 4/10
Human Patient with Pain; Table 7: sacroiliac strain, bilateral sacroilitis, listed as albuterol
  % Change in Pain level: 0%

## CC(O)CO (centres unmarked) [Propylene glycol]
Human Patient with Pain; Table 5
  Observation (pain): No effect
